Assay results published in US4570005A, “Process for the preparation of 2-arylpropyl ether or thioether derivatives” (priority 1980, dated 1986).

Assays:
tobacco cutworm [1] = assay: Test 1: Effect on Tobacco Cutworm (leaf immersion), mortality after 24 hours; assay type: in vivo; conditions: second-instar larvae, 25° C
How it was run: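 Second-instar tobacco cutworm larvae were kept at 25 °C on air-dried sweet-potato leaves that had been immersed for 10 s in test dilutions of 100 or 20 ppm from an emulsifiable concentrate. Mortality was scored at 24 h as the mean of three cups.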

[2] = system: resistant green rice leafhopper (collected at Nakagawara); assay: Test 3: Effect on Resistant Green Rice Leafhopper (collected at Nakagawara); assay type: in vivo, Nephotettix cincticeps Uhler (Green rice leafhopper); conditions: Nephotettix cincticeps, 24 h, read-out: Mortality (%), Green Rice Leafhopper Collected at Nakagawara
How it was run: (§1)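 Ten adult females per pot, either resistant (Nakagawara) or sensitive (Chigasaki), were caged on air-dried rice seedlings (2–3 leaves) sprayed at 3 ml/pot with 100 or 20 ppm of an emulsifiable concentrate dilution. Dead and living insects were counted after 24 hours; mortality is the mean of three pots.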

[3] = system: sensitive green rice leafhopper (collected at Chigasaki); assay: whole plant or invertebrate; assay type: in vivo; conditions: Nephotettix cincticeps, sensitive female adults, 24 hours, read-out: Mortality (%), Green Rice Leafhopper Collected at Chigasaki
How it was run: as §1

diamond back moth = assay: Test 4: Effect on Diamond Back Moth; assay type: in vivo; conditions: Plutella, third-instar larvae, 24 hours, read-out: Mortality (%)
How it was run: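 Compound formulated as an emulsifiable concentrate, diluted in water to 100 or 20 ppm and sprayed at 3 ml per cup onto cabbage leaves holding 10 third-instar larvae. Mortality counted after 24 hours; mean of three cups.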

green peach aphid = assay: Test 5: Effect on Green Peach Aphid; assay type: in vivo; conditions: Myzus persicae; 100 ppm; mortality class; 24 hours; read-out: Insecticidal Activity
How it was run: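 Eggplant seedlings with 3–4 leaves were infested with aphids and sprayed with a 100 ppm aqueous dilution of an emulsifiable concentrate, then kept in a glasshouse. Living insects were counted after 24 h. Mortality is averaged over three pots and graded A (>95%), B (80–95%), C (50–80%) or D (<50%).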

two-spotted spider mite = assay: Test 6: Effect on Two-Spotted Spider mite Adults; assay type: in vivo; conditions: Tetranychus urticae; 100 ppm; adults; 24 hours; 25° C; read-out: Mortality (%)
Description: To a mixture of 20 parts of the compound of the present invention and 20 parts of Sorpol SM-200 (registered tradename for the product supplied by Toho Chemical Industrial Co., Ltd.) was added 60 parts of xylol, and the mixture was suffciently blended. The obtained emulsifiable concentrate was diluted at a predetermined concentration with distilled water, and the obtained dilution was used.
A kidney bean leaf disc perforated with a cork borer (15 mm in diameter) was placed on water-impregnated absorbent cotton (2 cm×2 cm), and 10 adults of two-spotted spider mite were set free. A chemical dilution having a concentration of 100 ppm was applied with an applicator in an amount of 3 ml.
The leaf disc-placed absorbent cotton was placed in a thermostat chamber maintained at 25° C. After 24 hours, the number of killed adults was counted and the mortality was calculated. The test was made on three leaf discs and the average value was calculated.

[4] = Test 9: Toxicity Test (acute oral toxicity, mice); conditions: mouse, in vivo, po
Description: A predetermined amount of a solution or suspension of a test compound in corn oil was orally administered to male mice having a body weight of 19 to 23 g (0.2 ml per 10 g of the body weight). After 7 days, the number of killed mice was counted and the influences on the mice were examined.

tobacco cutworm [5] = assay: Test 2: Tobacco Cutworm Larva Dipping Test, mortality after 24 hours; assay type: in vivo; conditions: 24 hours
How it was run: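 Second- and fifth-instar larvae dipped 5 s in a water dilution of an emulsifiable concentrate at 100 or 20 ppm, blotted, then held on artificial diet at 25° C. Dead and living larvae counted after 24 hours; mortality averaged over three cups.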

German cockroach = assay: Test 7: Effect on German Cockroach; assay type: in vivo; conditions: Blattella germanica, male adults, agonized and killed after 24 hours, read-out: Mortality (%); for mortality at 10 mg/m2: 10 mg/m^2; for mortality at 50 mg/m2: 50 mg/m^2
How it was run: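 Petri dish floors were treated with 50 or 10 mg/m2 of compound (diluted emulsifiable concentrate) and air-dried. Ten male adult German cockroaches per dish were held at 25° C. Agonized and dead insects were counted after 24 hours, averaging two dishes.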

Test 8: Fish Toxicity = assay type: in vivo; conditions: carp, water; concentration at which 1/2 of the test fishes were killed within 48 hours; read-out: Fish Toxicity, TLm48
Description: A water tank having a width of 60 cm, a length of 30 cm and a height of 40 cm was filled with water, and 10 yearling carps having a body length of about 5 cm were set free in the tank and adapted to the environment in the tank. A test compound was applied so that the concentration in water was 10, 1 or 0.1 ppm. After 48 hours, the numbers of killed and living carps were counted and the influences on the fishes were examined.

[6] = fifth-instar larvae, read-out: Motality (%), Fifth-Instar Larvae
[7] = second-instar larvae, read-out: Motality (%), Second-Instar Larvae

Molecule `CCCOc1ccc(C(C)(C)COCc2cccc(Oc3ccccc3)c2)cc1` [Compound 57, 3-Phenoxybenzyl 2-[4-(n-propoxy)phenyl]-2-methylpropyl ether] has a mortality at 20 ppm (tobacco cutworm [1]) of 100%, a mortality at 100 ppm (tobacco cutworm [1]) of 100% and a mortality at 20 ppm [2] of 100%. For the same molecule, the mortality at 100 ppm [2] was 100%, the mortality at 20 ppm [3] was 100% and the mortality at 100 ppm [3] was 100%. The mortality at 20 ppm (diamond back moth) was 75%, the mortality at 100 ppm (diamond back moth) was 100% and the mortality at 100 ppm (green peach aphid) was greater than 95%. For the same molecule, the mortality at 100 ppm (two-spotted spider mite) was 90% and the LD50 at 168 h [4] was greater than 500 mg/kg.

`CC(C)C(COCc1cccc(Oc2ccccc2)c1)c1ccc(Cl)cc1` (stereo not shown) [Comparative Compound (b), reference compound] showed a mortality at 100 ppm (tobacco cutworm [5]; [6]) of 0%, a mortality at 100 ppm (tobacco cutworm [5]; [7]) of 0% and a mortality at 20 ppm (diamond back moth) of 10%. For the same molecule, the mortality at 100 ppm (diamond back moth) was 30%, the mortality at 100 ppm (green peach aphid) was less than 50% and the mortality at 100 ppm (two-spotted spider mite) was 20%.

`CC(C)Oc1ccc(C(C)(C)COCc2cccc(Oc3ccccc3)c2)cc1` [Compound 59, 3-Phenoxybenzyl 2-(4-isopropoxyphenyl)-2-methylpropyl ether] gave a mortality at 20 ppm (tobacco cutworm [5]; [6]) of 100%, a mortality at 20 ppm (tobacco cutworm [5]; [7]) of 100% and a mortality at 100 ppm (tobacco cutworm [5]; [6]) of 100%. The mortality at 100 ppm (tobacco cutworm [5]; [7]) was 100%, the mortality at 20 ppm [2] was 100% and the mortality at 100 ppm [2] was 100%. For the same molecule, the mortality at 20 ppm [3] was 100%, the mortality at 100 ppm [3] was 100% and the mortality at 20 ppm (diamond back moth) was 85%. It also gave a mortality at 100 ppm (diamond back moth) of 100%, a mortality at 100 ppm (green peach aphid) greater than 95% and a mortality at 100 ppm (two-spotted spider mite) of 100%. The mortality at 10 mg/m2 (German cockroach) was 100%, the mortality at 50 mg/m2 (German cockroach) was 100% and the LD50 at 168 h [4] was greater than 500 mg/kg.

For `CC(C)(COCc1cccc(Oc2ccc(F)cc2)c1)c1ccc(F)cc1` [Compound 45], the mortality at 20 ppm (tobacco cutworm [1]) was 100%, the mortality at 100 ppm (tobacco cutworm [1]) was 100% and the mortality at 20 ppm [2] was 100%. It also gave a mortality at 100 ppm [2] of 100%, a mortality at 20 ppm [3] of 100% and a mortality at 100 ppm [3] of 100%. It also gave a mortality at 20 ppm (diamond back moth) of 100%, a mortality at 100 ppm (diamond back moth) of 100% and a mortality at 100 ppm (two-spotted spider mite) of 100%. The mortality at 10 mg/m2 (German cockroach) was 100%, the mortality at 50 mg/m2 (German cockroach) was 100% and the LC50 at 48 h (Test 8: Fish Toxicity) was greater than 1 µg/mL. It also gave an LD50 at 168 h [4] greater than 500 mg/kg.

In the case of `CCC(C)(COCc1cccc(Oc2ccc(Br)cc2)c1)c1ccc(Cl)cc1` (stereo not shown) [Compound 46], the mortality at 20 ppm (tobacco cutworm [1]) is reported as 100%, the mortality at 100 ppm (tobacco cutworm [1]) is reported as 100% and the mortality at 20 ppm (tobacco cutworm [5]; [6]) is reported as 60%. For the same molecule, the mortality at 20 ppm (tobacco cutworm [5]; [7]) was 80%, the mortality at 100 ppm (tobacco cutworm [5]; [6]) was 80% and the mortality at 100 ppm (tobacco cutworm [5]; [7]) was 90%. For the same molecule, the mortality at 20 ppm [2] was 80%, the mortality at 100 ppm [2] was 100% and the mortality at 20 ppm [3] was 65%. For the same molecule, the mortality at 100 ppm [3] was 100%, the mortality at 20 ppm (diamond back moth) was 100% and the mortality at 100 ppm (diamond back moth) was 100%. For the same molecule, the mortality at 100 ppm (two-spotted spider mite) was 95%, the LC50 at 48 h (Test 8: Fish Toxicity) was greater than 10 µg/mL and the LD50 at 168 h [4] was greater than 500 mg/kg.

For `CC(C)COc1ccc(C(C)(C)COCc2cccc(Oc3ccccc3)c2)cc1` [Compound 64, 3-Phenoxybenzyl 2-(4-isobutyloxyphenyl)-2-methylpropyl ether], the mortality at 20 ppm (diamond back moth) was 70%, the mortality at 100 ppm (diamond back moth) was 100% and the mortality at 100 ppm (green peach aphid) was greater than 95%. The mortality at 100 ppm (two-spotted spider mite) was 100% and the LD50 at 168 h [4] was greater than 500 mg/kg.

For `Cc1ccc(C(C)(C)COCc2cccc(Oc3ccccc3)c2)cc1` [Compound 47, 3-Phenoxybenzyl 2-(4-methylphenyl)-2-methylpropyl ether], the mortality at 20 ppm (tobacco cutworm [1]) was 90%, the mortality at 100 ppm (tobacco cutworm [1]) was 100% and the mortality at 20 ppm [2] was 100%. It also gave a mortality at 100 ppm [2] of 100%, a mortality at 20 ppm [3] of 100% and a mortality at 100 ppm [3] of 100%. For the same molecule, the mortality at 100 ppm (two-spotted spider mite) was 100%, the mortality at 10 mg/m2 (German cockroach) was 90% and the mortality at 50 mg/m2 (German cockroach) was 100%. The LC50 at 48 h (Test 8: Fish Toxicity) was greater than 10 µg/mL and the LD50 at 168 h [4] was greater than 500 mg/kg.

For `CC(C)(COCc1cccc(Oc2ccccc2)c1)c1ccccc1` [Compound 5, 3-Phenoxybenzyl 2-phenyl-2-methylpropyl ether], the mortality at 20 ppm [2] was 100%, the mortality at 100 ppm [2] was 100% and the mortality at 20 ppm [3] was 100%. It also gave a mortality at 100 ppm [3] of 100%, a mortality at 100 ppm (green peach aphid) greater than 95% and a mortality at 100 ppm (two-spotted spider mite) of 100%. For the same molecule, the mortality at 10 mg/m2 (German cockroach) was 80%, the mortality at 50 mg/m2 (German cockroach) was 100% and the LD50 at 168 h [4] was greater than 500 mg/kg.
